Data set [1] is described as follows: Therapeutic index, ratio of HC10 for mouse RBC to IC50 for cytotoxicity against human A549 cells. The format is toxicity, cell-based. Particulars: mouse RBC and A549 cells, read-out: TI.
The nature of data set [2]: Cytotoxicity against HK-2 cells assessed as inhibition of cell growth incubated for 1 hr by MTT assay. In kind it is toxicity, cell-based. Conditions: human.
A further data set deals with MCF7. Nature of the data set: Cytotoxicity against human MCF7 cells assessed as inhibition of cell growth incubated for 1 hr by MTT assay. In kind it is functional, cell-based. Conditions: MCF7, 1 h. (In general: Formazan colour is commonly taken as a measure of viable cells.)
Data set [3] in a line: Therapeutic index, ratio of HC10 for mouse RBC to IC50 for cytotoxicity against RG cells (unknown origin). In kind it is toxicity, cell-based. Particulars: mouse RBC and RG cells, read-out: TI.
A further data set concerns A549. Put plainly: Cytotoxicity against human A549 cells assessed as inhibition of cell growth incubated for 1 hr by MTT assay. In kind it is functional, cell-based. Particulars: A549, 1 h.
Data set [4] in a line: Cytotoxicity against RG cells (unknown origin) assessed as inhibition of cell growth incubated for 1 hr by MTT assay. In kind it is functional, cell-based.
Data set [5] can be described thus: Therapeutic index, ratio of HC10 for mouse RBC to IC50 for cytotoxicity against human HeLa cells. In kind it is toxicity, cell-based. Particulars: mouse RBC and HeLa cells, read-out: TI.
The next data set has as its system HeLa. Nature of the data set: Cytotoxicity against human HeLa cells assessed as inhibition of cell growth incubated for 1 hr by MTT assay. In kind it is functional, cell-based.
Data set [6] in a line: Therapeutic index, ratio of HC10 for mouse RBC to IC50 for cytotoxicity against human MCF7 cells. The format is toxicity, cell-based. Particulars: mouse RBC and MCF7 cells, read-out: TI.

Consider ten compounds from ChEMBL document CHEMBL5584231, “Rational design of a new short anticancer peptide with good potential for cancer treatment” (Eur J Med Chem, 2024).

In general, IC50 refers to the concentration needed to halve the response being measured.

Structures are written as SMILES. Non-standard residues stand in square brackets, D forms with d. Residues, ends and D or L forms follow the SMILES beside them. Dip = N[C@H](C(=O)O)C(c1ccccc1)c1ccccc1; Nle(6-COOH) = N[C@@H](CCCCC(=O)O)C(=O)O; Asu = N[C@@H](CCCCCC(=O)O)C(=O)O

Turning to `CC(C)C[C@H](NC(=O)[C@H](CC(C)C)NC(=O)[C@H](CCCCN)NC(=O)[C@H](CCCCN)NC(=O)[C@H](CC(C)C)NC(=O)[C@H](CC(C)C)NC(=O)[C@H](CCC(=O)O)NC(=O)[C@H](CCCCN)NC(=O)[C@H](CC(C)C)NC(=O)[C@H](CC(C)C)NC(=O)[C@H](CCCCN)NC(=O)[C@H](CCCCN)NC(=O)[C@H](CC(C)C)NC(=O)[C@@H](N)CC(C)C)C(N)=O` (H-LLKKLLKELLKKLL-NH2), the selectivity ratio stood at 1.39 in data set [1], 1.1 in data set [3], 1.15 in data set [5] and 1.32 in [6]. For the same compound, the IC50 at 1 h in data set [2] worked out at 3.8 µM. For the same compound, the IC50 was determined as 3.95 µM in the data set with MCF7, 3.75 µM with A549, 4.74 µM in data set [4] and 4.54 µM in the data set on HeLa.

As to `CC(C)C[C@H](NC(=O)[C@H](CC(C)C)NC(=O)[C@H](CCCCN)NC(=O)[C@H](CCCCN)NC(=O)[C@H](CC(C)C)NC(=O)[C@H](CCC(=O)O)NC(=O)[C@H](CCCCN)NC(=O)[C@H](CCCCN)NC(=O)[C@H](CC(C)C)NC(=O)[C@H](CC(C)C)NC(=O)[C@H](CCCCN)NC(=O)[C@H](CCCCN)NC(=O)[C@H](CC(C)C)NC(=O)[C@@H](N)CC(C)C)C(N)=O` (H-LLKKLLKKELKKLL-NH2), the selectivity ratio in data set [1] was 1.04; in data set [3], 2.3; in [5], 4.18; in [6] it was 2.76. Also, the IC50 at 1 h in [2] was determined as 146 µM. Moreover, the IC50 was found to be 181 µM with MCF7, 482 µM in the data set on A549, 217 µM in data set [4] and 120 µM with HeLa.

For `CC(C)C[C@H](NC(=O)[C@H](CC(C)C)NC(=O)[C@H](CCCCN)NC(=O)[C@H](CCCCN)NC(=O)[C@H](CCC(=O)O)NC(=O)[C@H](CC(C)C)NC(=O)[C@H](CCCCN)NC(=O)[C@H](CCCCN)NC(=O)[C@H](CC(C)C)NC(=O)[C@H](CC(C)C)NC(=O)[C@H](CCCCN)NC(=O)[C@H](CCCCN)NC(=O)[C@H](CC(C)C)NC(=O)[C@@H](N)CC(C)C)C(N)=O` (H-LLKKLLKKLEKKLL-NH2), the selectivity ratio in data set [1] turned out to be 5.74; in data set [3], 6.34; in [5], 11.4; in data set [6] it was 5.15. Further, the IC50 at 1 h in [2] was found to be 92.5 µM. The IC50 worked out at 97.1 µM in the data set with MCF7, 87.1 µM in the data set with A549, 78.9 µM in data set [4] and 43.7 µM in the data set on HeLa.

As for `CC(C)C[C@H](NC(=O)[C@H](CC(C)C)NC(=O)[C@H](CCCCN)NC(=O)[C@H](CCC(=O)O)NC(=O)[C@H](CC(C)C)NC(=O)[C@H](CC(C)C)NC(=O)[C@H](CCCCN)NC(=O)[C@H](CCCCN)NC(=O)[C@H](CC(C)C)NC(=O)[C@H](CC(C)C)NC(=O)[C@H](CCCCN)NC(=O)[C@H](CCCCN)NC(=O)[C@H](CC(C)C)NC(=O)[C@@H](N)CC(C)C)C(N)=O` (H-LLKKLLKKLLEKLL-NH2), the selectivity ratio in data set [1] is 3.48; in [3], 3.04; in data set [5] it was 3.15; in data set [6] it was 2.28. The IC50 at 1 h in data set [2] stood at 4.49 µM. Also, the IC50 in the data set with MCF7 was determined as 7.66 µM; with A549, 5.01 µM; in data set [4], 5.73 µM; in the data set with HeLa it was 5.53 µM.

On to `CC(C)C[C@H](NC(=O)[C@H](CC(C)C)NC(=O)[C@H](CCC(=O)O)NC(=O)[C@H](CCCCN)NC(=O)[C@H](CC(C)C)NC(=O)[C@H](CC(C)C)NC(=O)[C@H](CCCCN)NC(=O)[C@H](CCCCN)NC(=O)[C@H](CC(C)C)NC(=O)[C@H](CC(C)C)NC(=O)[C@H](CCCCN)NC(=O)[C@H](CCCCN)NC(=O)[C@H](CC(C)C)NC(=O)[C@@H](N)CC(C)C)C(N)=O` (H-LLKKLLKKLLKELL-NH2), for which the selectivity ratio in [1] came out at 0.474; in [3] it was 0.838; in data set [5] it was 0.352; in data set [6], 0.438. For the same compound, the half-maximal inhibitory concentration (IC50) at 1 h in data set [2] came to 10.8 µM. Moreover, the IC50 in the data set on MCF7 turned out to be 11.8 µM; in the data set on A549 it was 10.9 µM; in data set [4], 6.16 µM; in the data set with HeLa, 14.7 µM.

With `CC(C)C[C@H](NC(=O)[C@H](CCC(=O)O)NC(=O)[C@H](CCCCN)NC(=O)[C@H](CCCCN)NC(=O)[C@H](CC(C)C)NC(=O)[C@H](CC(C)C)NC(=O)[C@H](CCCCN)NC(=O)[C@H](CCCCN)NC(=O)[C@H](CC(C)C)NC(=O)[C@H](CC(C)C)NC(=O)[C@H](CCCCN)NC(=O)[C@H](CCCCN)NC(=O)[C@H](CC(C)C)NC(=O)[C@@H](N)CC(C)C)C(N)=O` (H-LLKKLLKKLLKKEL-NH2), the selectivity ratio turned out to be 5.86 in data set [1], 5.81 in [3], 13.7 in data set [5] and 4.38 in data set [6]. The IC50 at 1 h in data set [2] amounted to 73 µM. In addition, the IC50 in the data set on MCF7 amounted to 101 µM; with A549, 75.3 µM; in [4] it was 75.9 µM; in the data set with HeLa it was 32.2 µM.

Turning to `CC(C)C[C@H](NC(=O)[C@H](CCCCN)NC(=O)[C@H](CCCCN)NC(=O)[C@H](CC(C)C)NC(=O)[C@H](CC(C)C)NC(=O)[C@H](CCCCN)NC(=O)[C@H](CCCCN)NC(=O)[C@H](CC(C)C)NC(=O)[C@H](CC(C)C)NC(=O)[C@H](CCCCN)NC(=O)[C@H](CCCCN)NC(=O)[C@H](CC(C)C)NC(=O)[C@@H](N)CC(C)C)C(=O)N[C@@H](CC(=O)O)C(N)=O` (H-LLKKLLKKLLKKLD-NH2), the selectivity ratio in [1] stood at 20; in data set [3], 11.4; in data set [5], 31.1; in [6], 12.2. Further, in [2], the IC50 at 1 h stood at 50.3 µM. Further, the IC50 was determined as 30.7 µM with MCF7, 18.8 µM in the data set on A549, 32.8 µM in data set [4] and 12.1 µM with HeLa.

Take `CC(C)C[C@H](NC(=O)[C@H](CCCCN)NC(=O)[C@H](CCCCN)NC(=O)[C@H](CC(C)C)NC(=O)[C@H](CC(C)C)NC(=O)[C@H](CCCCN)NC(=O)[C@H](CCCCN)NC(=O)[C@H](CC(C)C)NC(=O)[C@H](CC(C)C)NC(=O)[C@H](CCCCN)NC(=O)[C@H](CCCCN)NC(=O)[C@H](CC(C)C)NC(=O)[C@@H](N)CC(C)C)C(=O)N[C@@H](CCCCCC(=O)O)C(N)=O` (H-LLKKLLKKLLKKL[Asu]-NH2): the selectivity ratio in [1] amounted to 13.5; in data set [3], 6.3; in [5], 15.4; in data set [6], 9.43. Further, in data set [2], the IC50 at 1 h was 15.3 µM. Further, the IC50 in the data set on MCF7 was 8.55 µM; with A549 it was 5.97 µM; in data set [4] it was 12.8 µM; with HeLa, 5.23 µM.

Consider `CC(C)C[C@H](NC(=O)[C@H](CCCCN)NC(=O)[C@H](CCCCN)NC(=O)[C@H](CC(C)C)NC(=O)[C@H](CC(C)C)NC(=O)[C@H](CCCCN)NC(=O)[C@H](CCCCN)NC(=O)[C@H](CC(C)C)NC(=O)[C@H](CC(C)C)NC(=O)[C@H](CCCCN)NC(=O)[C@H](CCCCN)NC(=O)[C@H](CC(C)C)NC(=O)[C@@H](N)CC(C)C)C(=O)N[C@@H](CCCCC(=O)O)C(N)=O` (H-LLKKLLKKLLKKL[Nle(6-COOH)]-NH2), for which the selectivity ratio was 17.1 in data set [1], 9.42 in data set [3], 25.4 in [5] and 13.8 in data set [6]. Further, the IC50 at 1 h in [2] is 26.4 µM. Further, the IC50 with MCF7 is 14 µM; in the data set on A549, 11.2 µM; in data set [4], 20.4 µM; in the data set on HeLa, 7.59 µM.

On to `NCCCC[C@H](NC(=O)[C@@H](NC(=O)[C@H](Cc1c[nH]c2ccccc12)NC(=O)[C@H](CCCCN)NC(=O)[C@H](CCCCN)NC(=O)[C@H](Cc1c[nH]c2ccccc12)NC(=O)[C@H](Cc1c[nH]c2ccccc12)NC(=O)[C@H](CCCCN)NC(=O)[C@@H](N)CCCCN)C(c1ccccc1)c1ccccc1)C(N)=O` [RUXOTEMITIDE] (H-KKWWKKW[Dip]K-NH2), for which the selectivity ratio was 2.43 in data set [1], 3.6 in data set [3], 10.6 in data set [5] and 2.45 in data set [6]. Also, in data set [2], the IC50 at 1 h stood at 78.4 µM. Also, the IC50 stood at 63.5 µM in the data set with MCF7, 64.1 µM in the data set with A549, 43.2 µM in data set [4] and 14.7 µM in the data set with HeLa.
